Measured values published in patent US20150216921A1, “BASE POWDER FROM THE RED RASPBERRY RUBUS IDAEUS AND ACTIVATED MICRONIZED ZEOLITE FOR ATTENUATING NICOTINE ADDICTION, METHOD FOR THE PREPARATION THEREOF AND USE THEREOF” (University fo Hidalgo, priority 2011, published 2015).

What was measured:
[1] = test system: lung tumorogenesis of benzo [a] pyrene; conditions: cited from earlier work
nicotine addiction = assay: Site selectivity paradigm, nicotine addiction; type: in vivo; conditions: mice conditioned by nicotine
Text: (§1) 7. Using raspberry powder and pure ellagic acid (Sigma Aldrich) two experiments in mice were developed, one was to evaluate the effect of those in the anxiety caused by nicotine withdraw syndrome; and the other was to evaluate the nicotine addiction. Based on the process mentioned in the Mexican Institute of Industrial Property in patent application number Mx/a/2010/000827 record dated 21/ENE/2010, folio MX/E/2010/004489. In the first case the high-cross test was used and in the second test site selectivity paradigm. Nicotine was administered to mice for 14 consecutive days and when it was suspended, anxiety was developed.

[2] = test system: tumorigenicity of the nitrosamine NNK; conditions: dose of 4g/kg; cited from earlier work
[3] = test system: anxiety caused by nicotine withdraw syndrome; assay: High-cross test, anxiety caused by nicotine withdraw syndrome; type: in vivo; conditions: mice, nicotine for 14 consecutive days then suspended
Text: as §1

smoking = assay: Smoking cessation and follow-up by telephone; type: in vivo, humans
Text: (§2) 9. Treatment 1:—Two persons, a person and a person […], used ZAM ® (activated and micronized zeolite) at doses of 5 g daily during 14 days.
(§3) 10. Treatment 2:—Two persons, a person and a person […], used the raspberry powder recorded in January 2010 in the Mexican Institute of Industrial Property (patent application number record Mx/ a/2010/ 000827, at folio MX/E/2010/004489). At a dose of 5 g per day during 14 days.
(§4) 11. Treatment 3: A person, a person used a commercial product of raspberry, with similar characteristics to the raspberry powder, mentioned in the previous section, in combination with ZAM® (activated and micronized zeolite) at dose of 5 g per day.
(§5) 12. Treatment 4: Two persons, a person and a person, used raspberry powder registered in the patent application number Mx/a/2010/000827, folio MX/E/2010/004489) in combination with ZAM® (micronized and activated zeolite) in a dose of 7 g per day during 14 days.
(§6) 13. Treatment 5:—A person used varenicline, commercial brand, at dose of 1 mg twice daily during 7 days, then 0.5 mg daily for the next 3 days; continuing with 0.5 mg twice a day during 4 days, and finally 1 mg during 1 day, every 12 h. This cycle was repeated 12 weeks. Treatment 5.

[4] = test system: physical dependence on nicotine; assay: Fagerstrom test, degree of nicotine dependence; type: in vivo, humans; conditions: persons quitting smoking, at end of treatment
Text: as §2, §3, §4, §5, §6
14. Anxiety was assessed by the Hamilton Anxiety Scale (Hamilton, 1969; Bulbena, 2000; APA, 2000) and the degree of nicotine dependence with Fagerstrom test (1991).
25. […]

[5] = test system: anxiety (withdrawal syndrome); assay: Hamilton Anxiety Scale in persons quitting smoking; type: in vivo, humans; conditions: one person, 12 weeks treatment
Text: as §2, §3, §4, §5
13. […]
14. Anxiety was assessed by the Hamilton Anxiety Scale (Hamilton, 1969; Bulbena, 2000; APA, 2000) and the degree of nicotine dependence with Fagerstrom test (1991). […]
16. 14 scale items were evaluated, 13 related to anxiety symptoms and signs, and the last item values the patient's behavior during the assessment interview. […]
17. The physician scored from 0 to 4 points each item, assessing both the intensity and the frequency of it. […]

| SMILES | effect against tumorogenesis in lung of benzo [a] pyrene ([1]; intra peritoneal injection) | inhibition in the lung tumorogenesis of benzo [a] pyrene ([1]; mice feed by EA at a dose of 400 mg/kg) | nicotine-conditioned behavior (nicotine addiction) | inhibition of tumor multiplicity [2] | signs related to anxiety caused by the refraining from exposure to nicotine [3] | relapse a month after the treatment (smoking; monitoring by telephone, 1 month after treatment ends) | smoking cessation during treatment period (smoking; persons, during treatment / proposed period) | Fagerstrom test, physical dependence after treatment [4] | Hamilton Anxiety Scale, anxiety during the first month of treatment [5] | Hamilton Anxiety Scale, anxiety during the second and third month [5] |
| --- | --- | --- | --- | --- | --- | --- | --- | --- | --- | --- |
| O=c1oc2c(O)c(O)cc3c(=O)oc4c(O)c(O)cc1c4c23 [ellagic acid, 2,3,7, 8—tetrahidrobenzopirano [5,4, 3—cde] benzopiran-5-10 diona] | not effective | 90% | modulate this behavior in a significant way | 54% | significantly reduce |  |  |  |  |  |
| c1cnc2cc3c(cc2n1)[C@@H]1CNC[C@H]3C1 [varenicline] |  |  |  |  |  | fall smoking again | quit smoking in the second month of treatment | high (The Smokers with 6 or 7 points suffer high physical dependence) | less anxiety | increased anxiety |
